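Interpolation was linear, between the two tested concentrations surrounding the appropriate level; five concentrations were tested over 48 hours in 96-well plates. TGI marks complete inhibition of growth.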
Tests used:
Assay in all cases: NCI-60 cell line screen, 48 h
[1] = system: DLD-1 colon
[2] = system: CCRF-CEM leukemia
[3] = system: HCT-15 colon
[4] = system: HCT-116 colon
[5] = system: U251 CNS
[6] = system: IGROV1 ovarian
[7] = system: SF-268 CNS
[8] = system: K-562 leukemia
[9] = system: T-47D breast
[10] = system: MDA-N

| Compound | TGI [1] | TGI [2] | TGI [3] | TGI [4] | TGI [5] | TGI [6] | TGI [7] | TGI [8] | TGI [9] | TGI [10] |
| --- | --- | --- | --- | --- | --- | --- | --- | --- | --- | --- |
| FC1OC2OC1C(OCc1ccccc1)C(OCc1ccccc1)C2OCc1ccccc1 (stereo not given) | > 100 µM | 75.8 µM | > 100 µM | 63.2 µM | > 100 µM | > 100 µM | > 100 µM | 75.1 µM | – | – |
| CN1CCc2c1nc(-c1ccc([N+](=O)[O-])cc1)c1c2N(C)CC1 | > 100 µM | > 100 µM | > 100 µM | > 100 µM | > 100 µM | > 100 µM | > 100 µM | > 100 µM | – | – |
| S=c1nc(-c2ccnc(-c3nc(=S)[nH][nH]3)c2)[nH][nH]1 | > 100 µM | > 100 µM | > 100 µM | > 100 µM | > 100 µM | > 100 µM | > 100 µM | > 100 µM | – | – |
| COc1ccc(S(=O)(=O)N(C)CC(=O)O)cc1 | > 100 µM | > 100 µM | > 100 µM | – | > 100 µM | > 100 µM | > 100 µM | > 100 µM | – | – |
| O=C(Nc1cccc(NC(=O)c2cc(=O)c3ccccc3o2)n1)c1cc(=O)c2ccccc2o1 | > 100 µM | > 100 µM | > 100 µM | > 100 µM | > 100 µM | > 100 µM | > 100 µM | > 100 µM | – | – |
| COc1cc2cc3c4c(cc(OC)c(OC)c4c2cc1OC)CCN3C(=O)CCC(=O)NCCCN(C)C | 30.9 µM | 88.2 µM | > 100 µM | > 100 µM | > 100 µM | > 100 µM | > 100 µM | > 100 µM | – | – |
| CC(NC(=O)c1ccccc1)(C(=O)O)C(=O)O | – | > 100 µM | > 100 µM | > 100 µM | > 100 µM | > 100 µM | > 100 µM | > 100 µM | > 100 µM | > 100 µM |
| CCOC(=O)C(NC(=O)c1[nH]cnc1/N=N/N(C)C)C(C)C (stereo not given) | > 100 µM | > 100 µM | > 100 µM | > 100 µM | > 100 µM | > 100 µM | > 100 µM | > 100 µM | – | – |
| CCOC(=O)[C@H]1Nc2ccccc2C2c3ccccc3CC21 (stereo not given in full) | > 100 µM | – | > 100 µM | > 100 µM | > 100 µM | > 100 µM | > 100 µM | > 100 µM | – | – |
| COC(=O)c1c(C)nc(C)c(NO)c1-c1ccccc1C(F)(F)F | – | > 100 µM | 32.3 µM | 29.9 µM | > 100 µM | 35.6 µM | > 100 µM | > 100 µM | 66.1 µM | 30.5 µM |
| CN(C=O)/C=C/c1cc(O)ccc1O | 39.4 µM | 54.7 µM | 65.8 µM | 48.9 µM | > 69.7 µM | > 71.4 µM | 48.5 µM | 62.1 µM | – | – |
| COc1cnc2cc(C(=O)O)c3ccccc3c2c1 | – | > 100 µM | > 100 µM | > 100 µM | > 100 µM | > 100 µM | > 100 µM | > 100 µM | > 100 µM | > 100 µM |
| Cc1nc(N)nc2ccccc12 | – | > 100 µM | > 100 µM | > 100 µM | > 100 µM | > 100 µM | > 100 µM | > 100 µM | > 100 µM | > 100 µM |
| COC(=O)CCCC(=O)NC1=C(NCc2ccccc2)C(=O)c2ccccc2C1=O | – | > 100 µM | > 100 µM | > 100 µM | > 100 µM | > 100 µM | > 100 µM | > 100 µM | > 100 µM | > 100 µM |
| COc1cc2c(c(OC)c1OC)-c1ccc(SC)c(=O)cc1[C@@H](NC(=O)c1ccc(Cl)cc1)CC2 | > 100 µM | > 100 µM | 0.026 µM | 11.3 µM | < 0.01 µM | > 100 µM | > 100 µM | > 100 µM | – | – |
| CCOC(=O)C(=O)C(=O)NN(C)C1=NCCN1 | – | > 100 µM | > 100 µM | > 100 µM | > 100 µM | > 100 µM | > 100 µM | > 100 µM | > 100 µM | > 100 µM |
| COC(=O)[C@@H]1CN(C(=O)c2ccccc2)C(=O)N1C(=O)OCc1ccccc1 | – | > 100 µM | > 100 µM | > 100 µM | > 100 µM | > 100 µM | > 100 µM | > 100 µM | > 100 µM | > 100 µM |
| COc1ccc(C(O)CC(O)(C(F)(F)F)C(F)(F)F)cc1 (stereo not given) | – | 45.7 µM | > 100 µM | 38.1 µM | > 100 µM | 84.4 µM | > 100 µM | 53.6 µM | > 100 µM | > 100 µM |
